The source of these data is patent US20200172631A1, “ERBB2/HER2 MUTATIONS IN THE TRANSMEMBRANE OR JUXTAMEMBRANE DOMAIN” (GENENTECH, INC., priority 2017, published 2020).

For this experiment, the system named is TM/JM Her2 mutants expressed in BaF3 cells. The experiment in a line: BaF3 cell viability assay, all Her2 TM/JM mutants tested. The class given is cell-based, human. To be noted: BaF3 system, all Her2 TM/JM mutants tested (FIG. 7).

Molecules are shown by their SMILES.

Description: BaF3 cells were maintained in RPMI 1640 supplemented with 10% (v/v) fetal bovine serum (Thermo Fisher Scientific, IL), 2 mM L-glutamine, 100 U/ml penicillin, 100 mg/ml streptomycin (complete RPMI) and 2 ng/mL mouse IL-3.
BaF3 cells were cultured in complete RPMI media supplemented with recombinant murine IL-3 (mIL-3) and puromycin (1 μg/ml).
BaF3 cells survival assay was performed as described previously (Jaiswal et al., 2011). Briefly, stable cells expressing Her2 WT or mutants were washed twice times with 1× PBS and plated in 96-well plates (10,000 cells/well) in replicates of 12 in complete RPMI medium without IL-3. Cell viability was measured using the Cell Titer Glo Luminescence Cell Viability Kit (Promega, CA), and plates were read on a Synergy 2 (Biotek Instruments) luminescence plate reader. Relative survival reported was calculated as a ratio of relative luciferase activity (RLU) at day 4 over RLU measured at the day 0. The mutant Her2 constructs were tested in BaF3 either alone or in the presence of WT Flag tagged Her2 as indicated.
Viable cell number was assessed 4 days after treatment using Cell Titer-Glo Luminescent cell viability assay kit (Promega, WI). Non-linear regression plot of antibodies and their fractions or inhibitors were generated and calculation of IC50 was performed using GraphPad Prism 5.00 (GraphPad Software, CA). […]

Consider `CS(=O)(=O)CCNCc1ccc(-c2ccc3ncnc(Nc4ccc(OCc5cccc(F)c5)c(Cl)c4)c3c2)o1` [lapatinib], for which the “response of Her2 TM/JM mutants to ERBB2 kinase inhibitory small molecule drugs, effect on cell survival” value is “respond”. The same measure for `CCOc1cc2ncc(C#N)c(Nc3ccc(OCc4ccccn4)c(Cl)c3)c2cc1NC(=O)/C=C/CN(C)C` [neratinib]: “respond”.
